Several values for one entry are separate records, joined by “and”; a condition that tells them apart may be missing. Identical values can stand only once. Like-named read-outs stand apart in the source and are kept apart here. Marks after values point to notes of the source that are not given here.
Assays:
[1] = In vitro plasma protein binding; format: in vitro ADME, mouse
[2] = Blood concentrations and pharmacokinetics after 1 mg/kg i.v. in mice; format: in vivo, mouse
Protocol: 1 mg/kg of the compound was injected by IV and blood was withdrawn at the times in table 1. The amount of starting compound was quantified by a standard curve using MS/MS determinations.

[3] = target: S1P5 receptor (Homo sapiens (Human), UniProt Q9H228); assay: Antagonist assay (FLIPR TETRA, inhibition of reference agonist EC80) on S1P5; format: cell-based; conditions: tested as the citrate salt
Sequence of S1P5 receptor (Q9H228 whole entry): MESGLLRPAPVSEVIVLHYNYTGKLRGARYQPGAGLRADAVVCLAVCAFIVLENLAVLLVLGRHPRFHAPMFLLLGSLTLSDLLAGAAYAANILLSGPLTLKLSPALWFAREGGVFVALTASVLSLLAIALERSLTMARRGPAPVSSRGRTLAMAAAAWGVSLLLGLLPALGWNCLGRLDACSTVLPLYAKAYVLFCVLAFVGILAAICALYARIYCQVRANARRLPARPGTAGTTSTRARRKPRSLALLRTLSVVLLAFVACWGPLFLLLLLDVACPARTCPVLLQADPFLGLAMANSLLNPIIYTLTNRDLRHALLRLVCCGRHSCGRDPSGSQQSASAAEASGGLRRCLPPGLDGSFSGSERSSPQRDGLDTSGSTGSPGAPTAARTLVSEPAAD
Protocol: (§1) Antagonist percentage inhibition determinations were obtained by assaying sample compounds and referencing the control (EC80) wells for each profiled (GPCR) which evaluated binding to S1P2 and S1P5 receptors. The samples were run using a single addition assay protocol. The protocol design is as follows.
(§2) Unless specified otherwise, the sample compounds were diluted in 100% anhydrous DMSO including all dilutions. The compounds were tested as the citrate salt (1 equivalent per molecule). If the sample compound is provided in a different solvent all master stock dilutions are performed in the specified solvent. All control wells contained identical solvent final concentrations as the sample compound wells.
(§3) The sample compounds were transferred from a master stock solution into a daughter plate that was used in the assay. Each sample compound was diluted into an assay buffer (1×HBSS with 20 mM HEPES, 2.5 mM Probenecid, and 0.4% Free Fatty Acid BSA) at an appropriate concentration to obtain final specified concentrations.
(§4) Using the EC80 values that were determined real-time, stimulated all pre-incubated sample compounds and reference antagonists (if applicable) were compared with the EC80 values of reference agonist. These were read for 180 seconds using the FLIPR^TETRA (This assay added reference agonist to respective wells-then fluorescences measurements were collected to calculate IC50 values). All plates were subjected to appropriate baseline corrections. Once baseline corrections were processed, maximum fluorescence values were exported and data manipulated to calculate percentage activation, percentage inhibition and Z′.

[4] = Microsomal intrinsic clearance; conditions: mouse, microsomes, mouse microsomes, test conc. 1 μM
[5] = target: S1P2 receptor (Homo sapiens (Human), UniProt O95136); assay: Antagonist assay (FLIPR TETRA, inhibition of reference agonist EC80) on S1P2; format: cell-based; conditions: tested as the citrate salt
Sequence of S1P2 receptor (O95136 whole entry): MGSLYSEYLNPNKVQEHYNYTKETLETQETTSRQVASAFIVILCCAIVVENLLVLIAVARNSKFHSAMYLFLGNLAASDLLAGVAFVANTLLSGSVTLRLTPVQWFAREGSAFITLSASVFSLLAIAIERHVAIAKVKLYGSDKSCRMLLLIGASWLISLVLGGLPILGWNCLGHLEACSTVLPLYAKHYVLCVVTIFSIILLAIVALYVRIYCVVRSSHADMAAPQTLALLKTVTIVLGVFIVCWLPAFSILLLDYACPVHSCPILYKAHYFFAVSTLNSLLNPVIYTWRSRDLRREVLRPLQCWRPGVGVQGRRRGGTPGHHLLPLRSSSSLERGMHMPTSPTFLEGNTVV
Protocol: as §1, §2, §3, §4

[6] = in vitro; conditions: mouse, microsomes, NADPH-dependent Clint (microsomal intrinsic clearance)

Cc1nn(C)c2nc(NNC(=O)Nc3cc(Cl)nc(Cl)c3)cc(C(C)C)c12 [JTE013, N-(1H-4-isopropyl-1,3-dimethylpyrazolo[3,4-b]pyridine-6-yl)amino-N′-(2,6-dichloropyridine-4-yl) urea]
mean fraction bound (%) ([1]; mouse plasma, test concentration 5 nM): 99.7% | AUC0-inf ([2]; mouse blood, individual mice): 88.2 ng·h/mL and 122 ng·h/mL | AUC0-inf Extrapolated ([2]; mouse blood, individual mice): 6.50% and 2.89% and 12.1% | AUC0-tlast ([2]; mouse blood, individual mice): 85.6 ng·h/mL and 108 ng·h/mL | AUMC0-inf ([2]; mouse blood, individual mice): 153 h^2*ng/mL and 71.2 h^2*ng/mL and 652 h^2*ng/mL | AUMC0-inf Extrapolated ([2]; mouse blood, individual mice): 68.6% and 39.9% and 88.0% | AUMC0-tlast ([2]; mouse blood, individual mice): 48.1 h^2*ng/mL and 42.8 h^2*ng/mL and 78.0 h^2*ng/mL | C0 ([2]; mouse blood, individual mice): 397 ng/mL and 536 ng/mL | CL ([2]; mouse blood, individual mice): 188 mL/min/kg and 136 mL/min/kg | MRT0-inf ([2]; mouse blood, individual mice): 1.40 h and 0.807 h and 5.33 h | MRT0-tlast ([2]; mouse blood, individual mice): 0.500 h and 0.725 h | Terminal half-life ([2]; mouse blood, individual mice): 6.11 h and 3.56 h and 18.7 h | Vss ([2]; mouse blood, individual mice): 12.8 L/kg and 9.16 L/kg and 43.6 L/kg | AUC0-inf Extrapolated, Mean S.D. ([2]; mouse blood, mean): 7.15 ± 4.61% | AUMC0-inf Extrapolated, Mean S.D. ([2]; mouse blood, mean): 65.5 ± 24.2% | AUMC0-inf, Mean S.D. ([2]; mouse blood, mean): 292 ± 314 h^2*ng/mL | AUMC0-tlast, Mean S.D. ([2]; mouse blood, mean): 56.3 ± 19.0 h^2*ng/mL | C0, Mean S.D. ([2]; mouse blood, mean): 462 ± 70.1 ng/mL | Blood Concentrations ([2]; mouse, 5 min, individual mice, LLOQ = 1 ng/mL): 231 ng/mL and 302 ng/mL | Blood Concentrations ([2]; mouse, 0.25 h, individual mice, LLOQ = 1 ng/mL): 78.3 ng/mL and 95.8 ng/mL | Blood Concentrations ([2]; mouse, 0.5 h, individual mice, LLOQ = 1 ng/mL): 33.8 ng/mL and 40.4 ng/mL | Blood Concentrations ([2]; mouse, 1 h, individual mice, LLOQ = 1 ng/mL): 14.4 ng/mL and 13.4 ng/mL | Blood Concentrations ([2]; mouse, 2 h, individual mice, LLOQ = 1 ng/mL): 3.16 ng/mL and 3.12 ng/mL | Blood Concentrations ([2]; mouse, 4 h, individual mice, LLOQ = 1 ng/mL): 0.732^c ng/mL and 0.771^c ng/mL | Blood Concentrations ([2]; mouse, 6 h, individual mice, LLOQ = 1 ng/mL): 0.496^c ng/mL and 0.643^c ng/mL | Blood Concentrations ([2]; mouse, 12 h, individual mice, LLOQ = 1 ng/mL): BLQ | pharmacokinetics / blood levels following intravenous injection in mice (in words) ([2]; mouse, comparison between compounds): better than compound 2 | AUC0-inf ([2]; mouse, in vivo, iv, 1 mg/kg, mouse blood, individual mice, read-out: AUC0-inf): 109 ng·h/mL | AUC(0-t) ([2]; mouse, in vivo, iv, 1 mg/kg, mouse blood, individual mice, read-out: AUC0-tlast): 102 ng·h/mL | C0 ([2]; mouse, in vivo, iv, 1 mg/kg, mouse blood, individual mice, read-out: C0): 453 ng/mL | clearance ([2]; mouse, in vivo, iv, 1 mg/kg, mouse blood, individual mice, read-out: CL (converted)): 153 mL/min/kg | MRT last ([2]; mouse, in vivo, iv, 1 mg/kg, mouse blood, individual mice, read-out: MRT0-tlast): 0.471 h | AUC0-inf ([2]; mouse, in vivo, iv, 1 mg/kg, mouse blood, mean, read-out: AUC0-inf, Mean S.D.): 107 ± 17.2 ng·h/mL | AUC(0-t) ([2]; mouse, in vivo, iv, 1 mg/kg, mouse blood, mean, read-out: AUC0-tlast, Mean S.D.): 98.4 ± 11.4 ng·h/mL | clearance ([2]; mouse, in vivo, iv, 1 mg/kg, mouse blood, mean, read-out: CL, Mean S.D. (converted)): 159 mL/min/kg | MRT inf ([2]; mouse, in vivo, iv, 1 mg/kg, mouse blood, mean, read-out: MRT0-inf, Mean S.D.): 2.51 ± 2.46 h | MRT last ([2]; mouse, in vivo, iv, 1 mg/kg, mouse blood, mean, read-out: MRT0-tlast, Mean S.D.): 0.565 ± 0.139 h | half-life ([2]; mouse, in vivo, iv, 1 mg/kg, mouse blood, mean, read-out: Terminal half-life, Mean S.D. (converted)): 9.45 ± 8.09 h | Vd ([2]; mouse, in vivo, iv, 1 mg/kg, mouse blood, mean, read-out: Vss, Mean S.D.): 21.9 ± 18.9 L/kg | concentration at 5 min ([2]; mouse, in vivo, iv, 1 mg/kg, mouse, 5 min, individual mice, LLOQ = 1 ng/mL, read-out: Blood Concentrations): 282 ng/mL | concentration at 5 min ([2]; mouse, in vivo, iv, 1 mg/kg, mouse, 5 min, mean of 3 mice, read-out: Blood Concentrations, Mean S.D.): 272 ± 36.6 ng/mL | concentration at 0.25 h ([2]; mouse, in vivo, iv, 1 mg/kg, mouse, 0.25 h, individual mice, LLOQ = 1 ng/mL, read-out: Blood Concentrations): 109 ng/mL | concentration at 0.25 h ([2]; mouse, in vivo, iv, 1 mg/kg, mouse, 0.25 h, mean of 3 mice, read-out: Blood Concentrations, Mean S.D.): 94.4 ± 15.4 ng/mL | concentration at 0.5 h ([2]; mouse, in vivo, iv, 1 mg/kg, mouse, 0.5 h, individual mice, LLOQ = 1 ng/mL, read-out: Blood Concentrations): 44.4 ng/mL | concentration at 0.5 h ([2]; mouse, in vivo, iv, 1 mg/kg, mouse, 0.5 h, mean of 3 mice, read-out: Blood Concentrations, Mean S.D.): 39.5 ± 5.35 ng/mL | concentration at 1 h ([2]; mouse, in vivo, iv, 1 mg/kg, mouse, 1 h, individual mice, LLOQ = 1 ng/mL, read-out: Blood Concentrations): 11.8 ng/mL | concentration at 1 h ([2]; mouse, in vivo, iv, 1 mg/kg, mouse, 1 h, mean of 3 mice, read-out: Blood Concentrations, Mean S.D.): 13.2 ± 1.31 ng/mL | concentration at 2 h ([2]; mouse, in vivo, iv, 1 mg/kg, mouse, 2 h, individual mice, LLOQ = 1 ng/mL, read-out: Blood Concentrations): 2.72 ng/mL | concentration at 2 h ([2]; mouse, in vivo, iv, 1 mg/kg, mouse, 2 h, mean of 3 mice, read-out: Blood Concentrations, Mean S.D.): 3 ± 0.243 ng/mL | concentration at 4 h ([2]; mouse, in vivo, iv, 1 mg/kg, mouse, 4 h, individual mice, LLOQ = 1 ng/mL, read-out: Blood Concentrations): 1.01 ng/mL | concentration at 4 h ([2]; mouse, in vivo, iv, 1 mg/kg, mouse, 4 h, mean (n = 2 for Cmpd-1), read-out: Blood Concentrations, Mean S.D.): 0.838 ± 0.151 ng/mL | concentration at 6 h ([2]; mouse, in vivo, iv, 1 mg/kg, mouse, 6 h, individual mice, LLOQ = 1 ng/mL, read-out: Blood Concentrations): 0.805 ng/mL | concentration at 6 h ([2]; mouse, in vivo, iv, 1 mg/kg, mouse, 6 h, mean (n = 2 for Cmpd-1), read-out: Blood Concentrations, Mean S.D.): 0.648 ± 0.155 ng/mL | concentration at 12 h ([2]; mouse, in vivo, iv, 1 mg/kg, mouse, 12 h, individual mice, LLOQ = 1 ng/mL, read-out: Blood Concentrations): 0.547 ng/mL | IC50 [3]: 1.3 nM | microsomal CLint at 1 μM ([4]; NADPH-dependent Clint (microsomal intrinsic clearance)): 770 µL/min/mg | half-life at 1 μM ([4]; NADPH-dependent T1/2 (half-life)): 0.05 h | microsomal CLint at 1 μM ([4]; NADPH-free Clint (microsomal intrinsic clearance)): 22 µL/min/mg | half-life at 1 μM ([4]; NADPH-free T1/2 (half-life)): 1.75 h | IC50 [5]: 11 nM

CC(=O)CC(c1ccccc1)c1c(O)c2ccccc2oc1=O (centres unmarked) [Warfarin, reference compound]
mean fraction bound (%) ([1]; mouse, 5 nM): 92.1% | microsomal CLint at 1 μM [6]: 15 µL/min/mg

— patent publication US9663511B2, “Sphingosine 1-phosphate receptor antagonists” (ARROYO BIOSCIENCES, LLC, priority 2012, dated 2017)
